Tests used:
Assay type in all cases: cell-based, mouse
[1] = tested on: Dll4-mediated Notch signaling; experiment: MCP-1 expression in differentiated 3T3-L1 adipocytes
Experimental: 3T3-L1 preadipocytes (American Type Culture Collection) were maintained in Dulbecco's modified Eagle's medium (DMEM) (Gibco) containing 10% FBS. Differentiation of 3T3-L1 preadipocytes to mature adipocytes was performed as previously described and used as differentiated 3T3-L1 adipocytes at day 10 after the induction of differentiation. Differentiation was initiated two days after cells were confluent by adding fresh medium containing 0.5 mM isobutylmethylxanthine, 1 μM dexamethasone, and 10 μg/ml insulin. After two days, the methylisobutylxanthine and dexamethasone were removed and insulin was maintained for two additional days. On day 4 and thereafter, DMEM containing only 10% FBS was replaced every two days. […]
Applicants transfected siRNA against mouse Dll4 (Dharmacon), plasmid encoding mouse Dll4 (GeneCopoeia), RBP-Jκ reporter (SABiosciences), and Notch3 intracellular domains (N3ICD) to 3T3-L1 adipocytes by electroporation (Nucleofector system; Amaxa) according to the manufacturer's instructions. […] Luciferase activity was determined using a Dual-Luciferase Reporter Assay System (Promega). […]
(§1) Applicants synthesized cDNA from total RNA extracted from tissues and cells. Real-time quantitative RT-PCR was done with a MyiQ single-color real-time PCR detection system (BioRad) and PerfeCTa SYBR Green SuperMix for iQ (Quanta Biosciences). […]

[2] = tested on: Dll4-mediated Notch signaling; experiment: M1/M2 gene expression in RAW264.7 cells
Experimental: RAW264.7 cells (American Type Culture Collection) were also maintained in DMEM containing 10% FBS. For blockade of Dll4-mediated Notch signaling, Applicants pre-treated RAW264.7 cells with Dll4 Ab or IgG for 2 hours and then stimulated these cells with 1 ng/ml LPS for 24 hours. LPS stimulation activates the Notch signaling in RAW264.7 cells.
Applicants transfected siRNA against mouse Dll4 (Dharmacon), plasmid encoding mouse Dll4 (GeneCopoeia), RBP-Jκ reporter (SABiosciences), and Notch3 intracellular domains (N3ICD) to 3T3-L1 adipocytes by electroporation (Nucleofector system; Amaxa) according to the manufacturer's instructions. The Dll4-expressing plasmid was also transfected to RAW264.7 cells. N3ICD was a generous gift from Dr. Shigeru Chiba (Department of Clinical and Experimental Hematology, Graduate School of Comprehensive Human Sciences, University of Tsukuba). Applicants transfected 2 μg of siRNA or plasmid to cells and harvested them 48 hours or 24 hours after transfection, respectively. […] Luciferase activity was determined using a Dual-Luciferase Reporter Assay System (Promega). […]
as §1

RBP-Jκ reporter = RBP-Jκ reporter luciferase assay in 3T3-L1 adipocytes; conditions: 3T3-L1 adipocytes on rDll4-coated plates
Source text: Applicants transfected siRNA against mouse Dll4 (Dharmacon), plasmid encoding mouse Dll4 (GeneCopoeia), RBP-Jκ reporter (SABiosciences), and Notch3 intracellular domains (N3ICD) to 3T3-L1 adipocytes by electroporation (Nucleofector system; Amaxa) according to the manufacturer's instructions. The Dll4-expressing plasmid was also transfected to RAW264.7 cells. N3ICD was a generous gift from Dr. Shigeru Chiba (Department of Clinical and Experimental Hematology, Graduate School of Comprehensive Human Sciences, University of Tsukuba). Applicants transfected 2 μg of siRNA or plasmid to cells and harvested them 48 hours or 24 hours after transfection, respectively. Applicants used 5 μl of RBP-Jκ reporter solution for each transfection. After incubation for 24 hours, cells were seeded to rDll4-coated plates and used for the luciferase assay after 48-hour incubation. Luciferase activity was determined using a Dual-Luciferase Reporter Assay System (Promega). Applicants transfected 5 μg of N3ICD to cells and harvested them 24 hours after transfection.

NF-κB pathway = experiment: NF-κB activation in 3T3-L1 adipocytes (immunoblotting, immunocytochemistry)
Experimental: Differentiated 3T3-L1 adipocytes were starved for 16 hours and then used for in vitro experiments. For blockade Dll4-mediated Notch signaling, Applicants treated 3T3-L1 adipocytes with Dll4 Ab or IgG (10 μg/ml) and γ-secretase inhibitor (DAPT, 10 μM) or DMSO for 24 hours. To activate Dll4-mediated Notch signaling, Applicants seeded 3T3-L1 adipocytes to plates coated with recombinant mouse Dll4 (rDll4) (1 μg/ml), and then harvested cells after 48-hour incubation (Williams, et al., Blood 107:931-939 (2006)). Applicants also used SN50 (25 μg/ml) NF-κB inhibitor to determine the interaction between Notch signaling and the NF-κB pathway.
Differentiated 3T3-L1 adipocytes incubated in rDll4-coated plates were fixed in 4% paraformaldehyde and permeabilized with 0.1% NP40. After blocking with 1% goat serum, cells were incubated with a rabbit anti-p65 antibody (Santa Cruz Biotechnology), followed by an Alexa Fluor 594-conjugated donkey anti-rabbit Ig antibody (Molecular Probes). Nuclei were counterstained with Hoechst 33342 (Sigma). Cells were observed under an ECLIPSE TE2000-U (Nikon) equipped with a mercury illumination system and SPOT RT Camera (Diagnostic Instruments, Inc.).
Lysates prepared from tissues and cells in lysis buffer containing protease inhibitor cocktail (Sigma) and phosphatase inhibitor cocktail (Roche) were separated with SDS-PAGE gels. Applicants used the following antibodies: NF-κB p65 (Santa Cruz Biotechnology), phospho-NF-κB p65 (Rock Land), IK-Bα (Cell Signaling), and β-actin (Sigma).

Molecule: C[C@H](NC(=O)Cc1cc(F)cc(F)c1)C(=O)N[C@H](C(=O)OC(C)(C)C)c1ccccc1 [DAPT]
- MCP-1 RNA expression ([1]; differentiated 3T3-L1 adipocytes, blockade of Notch signaling): produced a similar effect

Molecule: rDll4: recombinant mouse Dll4 coated on plates to activate Dll4-mediated Notch signaling
- anti-inflammatory M2 genes (e.g., IL-10) [2]: suppressed
- expression of pro-inflammatory M1 genes such as IL-1β and iNOS [2]: induced expression
- MCP-1 expression ([1]; 3T3-L1 adipocytes cultured on rDll4-coated dishes): promoted
- RBP-Jκ reporter activity (RBP-Jκ reporter): Stimulation
- degradation of IκBα (NF-κB pathway): increased
- nuclear translocation of p65 (NF-κB pathway): increased
- phosphorylation of NF-κB subunit p65 (NF-κB pathway): increased

From patent publication US8889131B2, “NOTCH inhibition in the treatment and prevention of a metabolic disease or disorder and cardiovascular complications thereof” (The Brigham and Women's Hospital, Inc., priority 2009, dated 2014)
